# Values quoted from earlier work, collected in US20160243144A1 (Oakdene Holdings LLC, priority 2015, published 2016).
# Experiments:
# [1] = given orally
# [2] = particularly in patients with HE
SMILES,time by which urinary excretion is essentially complete [1],urinary excretion [1],intra-subject variability in Cmax or AUC [2]
OC[C@H]1O[C@@H](O[C@@H]2[C@@H](CO)OC(O)(CO)[C@H]2O)[C@H](O)[C@@H](O)[C@H]1O (mixture of isomers) [lactulose],≤ 24 h,≤ 3%,–
CO[C@H]1/C=C/O[C@@]2(C)Oc3c(C)c(O)c4c(O)c(c5c(nc6cc(C)ccn65)c4c3C2=O)NC(=O)/C(C)=C\C=C\[C@H](C)[C@H](O)[C@@H](C)[C@@H](O)[C@@H](C)[C@H](OC(C)=O)[C@@H]1C [Rifaximin],–,–,≥ 30 % CV
